Measured values from ChEMBL document CHEMBL6182898, “Design, synthesis and bioevaluation of novel hydrazide derivatives as enhancers of immunotherapy and DNA-damage response in antitumor therapy” (Eur J Med Chem, 2025).

Tests used:
4T1 [1] = assay: Antiproliferative activity against mouse 4T1 cells incubated for 72 hrs by MTT assay; assay type: functional, cell-based; details: 4T1, 72 h
SK-OV-3 [2] = assay: Antiproliferative activity against human SK-OV-3 cells incubated for 72 hrs by MTT assay; assay type: functional, cell-based; details: SK-OV-3, 72 h
HCT-116 [3] = assay: Antiproliferative activity against human HCT-116 cells incubated for 72 hrs by MTT assay; assay type: functional, cell-based; details: HCT-116, 72 h
B16-F10 [4] = assay: Antiproliferative activity against mouse B16-F10 cells incubated for 72 hrs by MTT assay; assay type: functional, cell-based; details: B16-F10, 72 h
K562 [5] = assay: Antiproliferative activity against human K562 cells incubated for 72 hrs by CCK8 assay; assay type: functional, cell-based; details: K562, 72 h
[6] = Antiproliferative activity against human HK-2 cells incubated for 72 hrs by MTT assay
Histone deacetylase 1 = Histone deacetylase 1 (Homo sapiens, UniProt Q13547); assay: Inhibition of HDAC1 (unknown origin)
Histone deacetylase 3 = Histone deacetylase 3 (Homo sapiens, UniProt O15379); assay: Inhibition of HDAC3 (unknown origin)
[7] = molecular target: T1, Protein deacetylase HDAC6 (Homo sapiens, UniProt Q9UBN7); assay: Inhibition of HDAC6 (unknown origin)
T1 sequence (Q9UBN7 whole entry): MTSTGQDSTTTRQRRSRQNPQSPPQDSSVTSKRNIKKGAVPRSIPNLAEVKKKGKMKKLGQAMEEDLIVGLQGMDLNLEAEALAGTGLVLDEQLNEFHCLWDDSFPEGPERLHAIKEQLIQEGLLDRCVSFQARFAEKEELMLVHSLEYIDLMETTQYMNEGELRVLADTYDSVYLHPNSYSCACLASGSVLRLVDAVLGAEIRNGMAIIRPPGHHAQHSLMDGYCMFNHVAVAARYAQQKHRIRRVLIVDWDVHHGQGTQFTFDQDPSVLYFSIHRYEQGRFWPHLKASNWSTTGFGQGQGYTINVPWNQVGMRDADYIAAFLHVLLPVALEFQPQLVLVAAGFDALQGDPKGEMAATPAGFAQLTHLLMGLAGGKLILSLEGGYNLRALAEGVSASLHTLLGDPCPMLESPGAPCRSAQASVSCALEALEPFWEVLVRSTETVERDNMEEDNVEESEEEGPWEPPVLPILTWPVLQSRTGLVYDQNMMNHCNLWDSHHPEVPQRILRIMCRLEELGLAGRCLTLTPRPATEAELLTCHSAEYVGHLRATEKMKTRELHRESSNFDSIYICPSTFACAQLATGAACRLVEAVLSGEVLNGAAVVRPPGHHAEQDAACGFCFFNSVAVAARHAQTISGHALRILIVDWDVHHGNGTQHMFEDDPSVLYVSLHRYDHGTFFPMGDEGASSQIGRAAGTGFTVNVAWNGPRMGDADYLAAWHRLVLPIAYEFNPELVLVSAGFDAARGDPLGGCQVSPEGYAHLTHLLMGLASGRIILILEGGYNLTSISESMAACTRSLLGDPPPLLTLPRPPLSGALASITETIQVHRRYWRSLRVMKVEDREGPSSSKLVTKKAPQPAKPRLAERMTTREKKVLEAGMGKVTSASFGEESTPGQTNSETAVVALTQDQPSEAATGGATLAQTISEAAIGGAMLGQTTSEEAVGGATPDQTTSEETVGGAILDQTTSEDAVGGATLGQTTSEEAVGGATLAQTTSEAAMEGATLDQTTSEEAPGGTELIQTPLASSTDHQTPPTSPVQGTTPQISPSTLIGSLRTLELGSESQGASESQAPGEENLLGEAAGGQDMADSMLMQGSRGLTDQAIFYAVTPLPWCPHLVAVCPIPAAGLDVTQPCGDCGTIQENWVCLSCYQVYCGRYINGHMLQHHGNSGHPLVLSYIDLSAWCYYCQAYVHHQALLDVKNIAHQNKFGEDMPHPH

Histone deacetylase 8 = molecular target: T2, Histone deacetylase 8 (Homo sapiens, UniProt Q9BY41); assay: Inhibition of HDAC8 (unknown origin)
T2 sequence (Q9BY41 whole entry): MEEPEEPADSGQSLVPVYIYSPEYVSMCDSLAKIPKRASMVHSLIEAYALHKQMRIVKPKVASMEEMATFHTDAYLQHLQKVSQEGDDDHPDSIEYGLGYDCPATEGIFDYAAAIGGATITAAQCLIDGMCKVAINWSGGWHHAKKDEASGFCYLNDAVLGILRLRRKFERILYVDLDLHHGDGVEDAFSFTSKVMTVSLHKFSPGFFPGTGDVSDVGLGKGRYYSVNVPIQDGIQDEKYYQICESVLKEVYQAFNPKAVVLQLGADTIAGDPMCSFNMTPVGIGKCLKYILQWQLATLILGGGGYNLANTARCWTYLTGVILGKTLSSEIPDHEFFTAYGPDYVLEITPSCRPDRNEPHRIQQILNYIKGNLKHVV

SK-OV-3 [8] = assay: cells; assay type: functional; details: Homo sapiens, time 72 hrs
4T1 [9] = assay: cells; assay type: functional; details: Mus musculus, time 72 hrs
HCT-116 [10] = assay: cells; assay type: functional; details: Homo sapiens, time 72 hrs
B16-F10 [11] = assay: cells; assay type: functional; details: Mus musculus, time 72 hrs
K562 [12] = assay: cells; assay type: functional; details: Homo sapiens, time 72 hrs

Histone deacetylase 3, sequence (O15379 whole entry): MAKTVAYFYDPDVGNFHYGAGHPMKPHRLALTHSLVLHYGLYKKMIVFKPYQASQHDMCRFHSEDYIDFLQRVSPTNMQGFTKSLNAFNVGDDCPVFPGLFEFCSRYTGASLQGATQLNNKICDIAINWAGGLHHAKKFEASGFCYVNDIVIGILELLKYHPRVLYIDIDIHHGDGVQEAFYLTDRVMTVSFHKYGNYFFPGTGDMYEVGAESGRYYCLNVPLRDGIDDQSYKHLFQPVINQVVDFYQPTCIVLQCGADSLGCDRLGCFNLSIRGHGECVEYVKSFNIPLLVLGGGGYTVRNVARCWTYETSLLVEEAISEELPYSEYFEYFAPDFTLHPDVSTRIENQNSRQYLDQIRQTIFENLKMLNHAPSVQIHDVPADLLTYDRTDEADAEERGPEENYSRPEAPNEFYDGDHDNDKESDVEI
Histone deacetylase 1, sequence (Q13547 whole entry): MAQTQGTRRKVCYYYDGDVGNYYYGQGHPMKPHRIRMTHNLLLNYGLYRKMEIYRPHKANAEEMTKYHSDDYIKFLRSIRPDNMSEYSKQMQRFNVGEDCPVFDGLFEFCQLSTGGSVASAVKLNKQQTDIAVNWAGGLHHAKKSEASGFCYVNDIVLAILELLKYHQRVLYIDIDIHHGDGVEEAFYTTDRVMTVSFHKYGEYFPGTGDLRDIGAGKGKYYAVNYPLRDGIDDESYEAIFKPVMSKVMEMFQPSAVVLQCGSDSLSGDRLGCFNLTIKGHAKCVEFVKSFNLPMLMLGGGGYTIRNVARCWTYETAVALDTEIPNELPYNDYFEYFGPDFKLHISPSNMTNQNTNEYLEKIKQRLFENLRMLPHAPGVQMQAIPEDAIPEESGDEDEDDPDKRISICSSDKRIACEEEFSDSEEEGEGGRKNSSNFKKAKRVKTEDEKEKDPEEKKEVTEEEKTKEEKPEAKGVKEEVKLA

Structure (SMILES) | IC50 (4T1 [1]) | IC50 (SK-OV-3 [2]) | IC50 (HCT-116 [3]) | IC50 (B16-F10 [4]) | IC50 (K562 [5]) | IC50 at 72 h [6] | IC50 (Histone deacetylase 1) | IC50 (Histone deacetylase 3) | IC50 [7] | IC50 (Histone deacetylase 8) | inhibition at 10 µM (SK-OV-3 [8]) | inhibition at 10 µM (4T1 [9]) | inhibition at 10 µM (HCT-116 [10]) | inhibition at 10 µM (B16-F10 [11]) | inhibition at 10 µM (K562 [12])
CCCNNC(=O)CCCCCCNC(=O)c1cnc(-c2ccc3[nH]ccc3c2)s1 | 9.82 µM | 5.06 µM | 8.15 µM | 9.36 µM | 1.46 µM | 10.1 µM | 1.57 µM | 0.42 µM | > 10 µM | > 10 µM | – | – | – | – | –
CCCNNC(=O)CCCCCCNC(=O)c1cnc(-c2ccc(OC(F)(F)F)c(OC(F)(F)F)c2)s1 | – | – | – | – | – | – | – | – | – | – | 62.7% | 20.5% | 88.8% | 54.5% | 69.5%
CCCNNC(=O)CCCCCNC(=O)c1cnc(-c2cccc(OC)c2)s1 | – | – | – | – | – | – | – | – | – | – | < 50% | < 20% | < 50% | < 50% | < 50%
CCCNNC(=O)CCCCCCNC(=O)c1cnc(-c2cccc(C)c2)s1 | – | – | – | – | – | – | – | – | – | – | < 50% | < 20% | 61.7% | < 50% | < 50%
CCCNNC(=O)CCCCCNC(=O)c1cnc(-c2ccc(Cl)cc2)s1 | – | – | – | – | – | – | – | – | – | – | < 50% | 21.5% | 58.2% | < 50% | < 50%
CCCNNC(=O)CCCCCCNC(=O)c1cnc(-c2ccc3c(c2)OCO3)s1 | – | – | – | – | – | – | – | – | – | – | 86.8% | 22.1% | 68.4% | 59.6% | 68.9%
CCCNNC(=O)CCCCCNC(=O)c1cnc(-c2ccc(OC(F)(F)F)cc2)s1 | – | – | – | – | – | – | – | – | – | – | < 50% | 31.9% | 62.9% | < 50% | 69.5%
CC(C)=CCCC(C)CNNC(=O)CCCCCCNC(=O)c1cnc(-c2ccc(NC(=O)OC(C)(C)C)cc2)s1 (stereo unspecified) | – | – | – | – | – | – | – | – | – | – | 57.2% | 40.5% | 58.7% | 66.8% | 53.5%
CCCNNC(=O)CCCCCNC(=O)c1cnc(-c2ccc(Oc3ccccc3)cc2)s1 | 10.5 µM | 4.43 µM | 3.38 µM | 11.1 µM | 7.68 µM | 10.8 µM | > 5 µM | 1.6 µM | > 10 µM | > 10 µM | 68.6% | 33.8% | 82.6% | < 50% | 73.1%
CCCNNC(=O)c1ccc(NC(=O)c2cnc(-c3ccccc3C)s2)cc1 | 14.5 µM | 5.57 µM | 3.45 µM | 12 µM | 3.58 µM | 11.9 µM | 1.62 µM | 0.87 µM | > 10 µM | > 10 µM | 56.2% | 26.4% | 67.1% | < 50% | 73.2%
CCCNNC(=O)c1ccc(NC(=O)c2cnc(-c3ccc(F)cc3)s2)cc1 | – | – | – | – | – | – | – | – | – | – | < 50% | < 20% | < 50% | < 50% | 69.6%
CC(C)(C)OC(=O)Nc1ccc(-c2ncc(C(=O)NCCCCCCC(=O)NNCC3CC3)s2)cc1 | – | – | – | – | – | – | – | – | – | – | 57.5% | 21.4% | 85.8% | 52.1% | 71.3%
CCCNNC(=O)CCCCCNC(=O)c1cnc(-c2cccc3ccccc23)s1 | – | – | – | – | – | – | – | – | – | – | < 50% | < 20% | 60.6% | < 50% | 67.5%
CCCCCCCCCNNC(=O)CCCCCCNC(=O)c1cnc(-c2ccc(NC(=O)OC(C)(C)C)cc2)s1 | – | – | – | – | – | – | – | – | – | – | 45% | < 20% | 59.7% | < 50% | 55.2%
CC(C)CNNC(=O)CCCCCCNC(=O)c1cnc(-c2ccc(NC(=O)OC(C)(C)C)cc2)s1 | – | – | – | – | – | – | – | – | – | – | 39.2% | 23.9% | 59% | 51% | 55.9%
CCCNNC(=O)c1ccc(NC(=O)c2cnc(-c3cc4ccc5cccc6ccc(c3)c4c56)s2)cc1 | 8.02 µM | 5.22 µM | 8.42 µM | 13.1 µM | 6.05 µM | 11.2 µM | 1.36 µM | 0.97 µM | > 10 µM | > 10 µM | 77.5% | < 20% | 69.3% | 61.7% | < 50%
Nc1ccccc1NC(=O)c1ccc(CNC(=O)OCc2cccnc2)cc1 [ENTINOSTAT] | 8.82 µM | 8.33 µM | 0.91 µM | 11 µM | 0.79 µM | 13.5 µM | – | – | – | – | 50.2% | 43.4% | 94.6% | 46.2% | 70.5%
CCCNNC(=O)CCCCCNC(=O)c1cnc(-c2ccc(Cl)cc2Cl)s1 | – | – | – | – | – | – | – | – | – | – | < 50% | < 20% | 54% | < 50% | < 50%
CCCNNC(=O)CCCCCNC(=O)c1cnc(-c2ccc3ccccc3c2)s1 | – | – | – | – | – | – | – | – | – | – | < 50% | < 20% | 58.5% | < 50% | 59.8%
C=CCNNC(=O)CCCCCCNC(=O)c1cnc(-c2ccc(NC(=O)OC(C)(C)C)cc2)s1 | – | – | – | – | – | – | – | – | – | – | 64.6% | 61.2% | 58.2% | 53.5% | 63.7%
CCCNNC(=O)CCCCCNC(=O)c1cnc(-c2ccc(C(F)(F)F)cc2)s1 | – | – | – | – | – | – | – | – | – | – | 70.9% | 38.9% | < 50% | 59.6% | < 50%
CCCNNC(=O)CCCCCNC(=O)c1cnc(-c2ccc(F)cc2F)s1 | – | – | – | – | – | – | – | – | – | – | < 50% | 21.7% | 62.9% | < 50% | 59.8%
CCCNNC(=O)CCCCCNC(=O)c1cnc(-c2ccc(NC(=O)OC(C)(C)C)cc2)s1 | – | – | – | – | – | – | – | – | – | – | < 50% | 27.1% | 53.6% | < 50% | 68.9%
CCCNNC(=O)CCCCCCNC(=O)c1cnc(-c2c[nH]c3ccccc23)s1 | – | – | – | – | – | – | – | – | – | – | 53% | 21.8% | 72.7% | < 50% | 67.7%
CCCNNC(=O)CCCCCNC(=O)c1cnc(-c2c[nH]c3ccccc23)s1 | – | – | – | – | – | – | – | – | – | – | < 50% | < 20% | 36.5% | < 50% | < 50%
